From ChEMBL document CHEMBL3885861, “Open TG-GATES”

Species on record: Rattus norvegicus
Assay: Open TG-GATES - Regimen: Daily Repeat
Format: toxicity, organism-based, Sprague-Dawley
Set-up: regimen Daily Repeat, gender Male, age 6 weeks
Settings: in vivo, po, 6 mg/kg, route gavage, dose level Low; for APTT / Bas / Eos / Fbg / Hb / Ht / Lym / MCH / MCHC / MCV / Mono / Neu / PT / Plat / RBC / Ret / WBC: tissue Blood; for LIVER: tissue Liver; for A/G / ALP / ALT / AST / BUN / CRE / Ca / Cl / DBIL / GLC / IP / K / LDH / Na / PL / RALB / TBIL / TC / TG / TP / gamma-GTP: tissue Plasma

Structure (SMILES): O=[N+]([O-])c1ccc(O)c([N+](=O)[O-])c1 [2,4-DINITROPHENOL]
- TERMINAL_BW (72 h, time 3 day): 247 g
- APTT (72 h, time 3 day): 16.5 s
- Bas (72 h, time 3 day): 0%
- Eos (72 h, time 3 day): 1%
- Fbg (72 h, time 3 day): 280.8 mg/dL
- Hb (72 h, time 3 day): 13.5 g/dL
- Ht (72 h, time 3 day): 39.7%
- Lym (72 h, time 3 day): 70%
- MCH (72 h, time 3 day): 21.5 pg
- MCHC (72 h, time 3 day): 34%
- MCV (72 h, time 3 day): 63.2 fL
- Mono (72 h, time 3 day): 9.4%
- Neu (72 h, time 3 day): 19.4%
- PT (72 h, time 3 day): 11.4 s
- Plat (72 h, time 3 day): 143.8 x10_4/uL
- RBC (72 h, time 3 day): 628 x10_4/ul
- Ret (72 h, time 3 day): 6.1%
- WBC (72 h, time 3 day): 100 x10_2/uL
- LIVER (72 h, time 3 day): 12.5 g
- A/G (72 h, time 3 day): 2.3
- ALP (72 h, time 3 day): 1318.2 IU/L
- ALT (72 h, time 3 day): 36 IU/L
- AST (72 h, time 3 day): 61.6 IU/L
- BUN (72 h, time 3 day): 18.8 mg/dL
- CRE (72 h, time 3 day): 0.4 mg/dL
- Ca (72 h, time 3 day): 11.6 mg/dL
- Cl (72 h, time 3 day): 104.4 meq/L
- DBIL (72 h, time 3 day): 0.012 mg/dL
- GLC (72 h, time 3 day): 190 mg/dL
- IP (72 h, time 3 day): 7.9 mg/dL
- K (72 h, time 3 day): 4.9 meq/L
- LDH (72 h, time 3 day): 110.2 IU/L
- Na (72 h, time 3 day): 137.6 meq/L
- PL (72 h, time 3 day): 165.2 mg/dL
- RALB (72 h, time 3 day): 4 g/dL
- TBIL (72 h, time 3 day): 0.032 mg/dL
- TC (72 h, time 3 day): 89.2 mg/dL
- TG (72 h, time 3 day): 137.2 mg/dL
- TP (72 h, time 3 day): 5.7 g/dL
- gamma-GTP (72 h, time 3 day): 0.6 IU/L
- TERMINAL_BW ([…], time 7 day): 282.7 g
- TERMINAL_BW ([…], time 14 day): 318.6 g
- TERMINAL_BW ([…], time 28 day): 445.6 g
- APTT ([…], time 7 day): 16.4 s
- Bas ([…], time 7 day): 0%
- Eos ([…], time 7 day): 0.8%
- Fbg ([…], time 7 day): 264.6 mg/dL
- Hb ([…], time 7 day): 13.1 g/dL
- Ht ([…], time 7 day): 38.6%
- Lym ([…], time 7 day): 81.6%
- MCH ([…], time 7 day): 21.3 pg
- MCHC ([…], time 7 day): 33.9%
- MCV ([…], time 7 day): 62.6 fL
- Mono ([…], time 7 day): 4.2%
- Neu ([…], time 7 day): 13.6%
- PT ([…], time 7 day): 11.5 s
- Plat ([…], time 7 day): 137.2 x10_4/uL
- RBC ([…], time 7 day): 617.8 x10_4/ul
- Ret ([…], time 7 day): 5.3%
- WBC ([…], time 7 day): 117 x10_2/uL
- APTT ([…], time 14 day): 17.1 s
- Bas ([…], time 14 day): 0%
- Eos ([…], time 14 day): 1%
- Fbg ([…], time 14 day): 255.8 mg/dL
- Hb ([…], time 14 day): 14.1 g/dL
- Ht ([…], time 14 day): 41.5%
- Lym ([…], time 14 day): 76.4%
- MCH ([…], time 14 day): 20.9 pg
- MCHC ([…], time 14 day): 33.9%
- MCV ([…], time 14 day): 61.7 fL
- Mono ([…], time 14 day): 6.4%
- Neu ([…], time 14 day): 16.4%
- PT ([…], time 14 day): 11.8 s
- Plat ([…], time 14 day): 119.2 x10_4/uL
- RBC ([…], time 14 day): 671.8 x10_4/ul
- Ret ([…], time 14 day): 3.9%
- WBC ([…], time 14 day): 134.2 x10_2/uL
- APTT ([…], time 28 day): 16.5 s
- Bas ([…], time 28 day): 0%
- Eos ([…], time 28 day): 1.2%
- Fbg ([…], time 28 day): 282.4 mg/dL
- Hb ([…], time 28 day): 14.9 g/dL
- Ht ([…], time 28 day): 43.9%
- Lym ([…], time 28 day): 76.6%
- MCH ([…], time 28 day): 19.6 pg
- MCHC ([…], time 28 day): 33.9%
- MCV ([…], time 28 day): 57.8 fL
- Mono ([…], time 28 day): 5.6%
- Neu ([…], time 28 day): 16.8%
- PT ([…], time 28 day): 11.8 s
- Plat ([…], time 28 day): 121.2 x10_4/uL
- RBC ([…], time 28 day): 759.4 x10_4/ul
- Ret ([…], time 28 day): 2.2%
- WBC ([…], time 28 day): 117.4 x10_2/uL
- LIVER ([…], time 7 day): 13.1 g
- LIVER ([…], time 14 day): 13.9 g
- LIVER ([…], time 28 day): 20 g
- A/G ([…], time 7 day): 2.3
- ALP ([…], time 7 day): 1599.8 IU/L
- ALT ([…], time 7 day): 36.8 IU/L
- AST ([…], time 7 day): 66 IU/L
- BUN ([…], time 7 day): 17.6 mg/dL
- CRE ([…], time 7 day): 0.3 mg/dL
- Ca ([…], time 7 day): 11.4 mg/dL
- Cl ([…], time 7 day): 104.8 meq/L
- DBIL ([…], time 7 day): 0.012 mg/dL
- GLC ([…], time 7 day): 188.2 mg/dL
- IP ([…], time 7 day): 7.4 mg/dL
- K ([…], time 7 day): 4.5 meq/L
- LDH ([…], time 7 day): 115.4 IU/L
- Na ([…], time 7 day): 140.8 meq/L
- PL ([…], time 7 day): 138.6 mg/dL
- RALB ([…], time 7 day): 3.9 g/dL
- TBIL ([…], time 7 day): 0.03 mg/dL
- TC ([…], time 7 day): 74.2 mg/dL
- TG ([…], time 7 day): 121.8 mg/dL
- TP ([…], time 7 day): 5.6 g/dL
- gamma-GTP ([…], time 7 day): 1 IU/L
- A/G ([…], time 14 day): 2.1
- ALP ([…], time 14 day): 1262 IU/L
- ALT ([…], time 14 day): 34.8 IU/L
- AST ([…], time 14 day): 66.2 IU/L
- BUN ([…], time 14 day): 18.8 mg/dL
- CRE ([…], time 14 day): 0.4 mg/dL
- Ca ([…], time 14 day): 11.1 mg/dL
- Cl ([…], time 14 day): 106.2 meq/L
- DBIL ([…], time 14 day): 0.01 mg/dL
- GLC ([…], time 14 day): 184.6 mg/dL
- IP ([…], time 14 day): 6.8 mg/dL
- K ([…], time 14 day): 4.7 meq/L
- LDH ([…], time 14 day): 114.6 IU/L
- Na ([…], time 14 day): 136.8 meq/L
- PL ([…], time 14 day): 129.4 mg/dL
- RALB ([…], time 14 day): 3.8 g/dL
- TBIL ([…], time 14 day): 0.016 mg/dL
- TC ([…], time 14 day): 62.4 mg/dL
- TG ([…], time 14 day): 125.8 mg/dL
- TP ([…], time 14 day): 5.7 g/dL
- gamma-GTP ([…], time 14 day): 0 IU/L
- A/G ([…], time 28 day): 1.9
- ALP ([…], time 28 day): 1091.6 IU/L
- ALT ([…], time 28 day): 33 IU/L
- AST ([…], time 28 day): 63.6 IU/L
- BUN ([…], time 28 day): 20.2 mg/dL
- CRE ([…], time 28 day): 0.5 mg/dL
- Ca ([…], time 28 day): 11 mg/dL
- Cl ([…], time 28 day): 105.2 meq/L
- DBIL ([…], time 28 day): 0.01 mg/dL
- GLC ([…], time 28 day): 203 mg/dL
- IP ([…], time 28 day): 7.3 mg/dL
- K ([…], time 28 day): 4.3 meq/L
- LDH ([…], time 28 day): 144.4 IU/L
- Na ([…], time 28 day): 140.6 meq/L
- PL ([…], time 28 day): 150 mg/dL
- RALB ([…], time 28 day): 3.9 g/dL
- TBIL ([…], time 28 day): 0.03 mg/dL
- TC ([…], time 28 day): 72.6 mg/dL
- TG ([…], time 28 day): 199.8 mg/dL
- TP ([…], time 28 day): 6 g/dL
- gamma-GTP ([…], time 28 day): 0.8 IU/L
